# Organism: Rattus norvegicus
# Test: Open TG-GATES - Regimen: Daily Repeat
# Assay type: toxicity, organism-based, Sprague-Dawley
# Set-up: regimen Daily Repeat, gender Male, age 6 weeks
# Settings: in vivo, sc, 0.002 mg/kg, route subcutaneous injection, dose 2 ug/Kg, dose level Low; for APTT / Bas / Eos / Fbg / Hb / Ht / Lym / MCH / MCHC / MCV / Mono / Neu / PT / Plat / RBC / Ret / WBC: tissue Blood; for KIDNEY_L / KIDNEY_R / KIDNEY_TOTAL: tissue Kidney; for LIVER: tissue Liver; for A/G / ALP / ALT / AST / BUN / CRE / Ca / Cl / DBIL / GLC / IP / K / LDH / Na / PL / RALB / TBIL / TC / TG / TP / gamma-GTP: tissue Plasma
smiles,measurement,setting,value
CC(=O)O.N=C(N)NCCC[C@@H](NC(=O)[C@@H]1CCCN1C(=O)[C@@H]1CSSCCC(=O)N[C@@H](Cc2ccc(O)cc2)C(=O)N[C@@H](Cc2ccccc2)C(=O)N[C@@H](CCC(N)=O)C(=O)N[C@@H](CC(N)=O)C(=O)N1)C(=O)NCC(N)=O [DESMOPRESSIN ACETATE],TERMINAL_BW,"72 h, time 3 day",236.2 g
same,APTT,"72 h, time 3 day",16.3 s
same,Bas,"72 h, time 3 day",0%
same,Eos,"72 h, time 3 day",1.2%
same,Fbg,"72 h, time 3 day",261.2 mg/dL
same,Hb,"72 h, time 3 day",13.3 g/dL
same,Ht,"72 h, time 3 day",41%
same,Lym,"72 h, time 3 day",72%
same,MCH,"72 h, time 3 day",21.1 pg
same,MCHC,"72 h, time 3 day",32.4%
same,MCV,"72 h, time 3 day",65.2 fL
same,Mono,"72 h, time 3 day",8.6%
same,Neu,"72 h, time 3 day",18.2%
same,PT,"72 h, time 3 day",12.2 s
same,Plat,"72 h, time 3 day",133.6 x10_4/uL
same,RBC,"72 h, time 3 day",630 x10_4/ul
same,Ret,"72 h, time 3 day",8.4%
same,WBC,"72 h, time 3 day",92.6 x10_2/uL
same,KIDNEY_L,"72 h, time 3 day",1 g
same,KIDNEY_R,"72 h, time 3 day",1 g
same,KIDNEY_TOTAL,"72 h, time 3 day",2.1 g
same,LIVER,"72 h, time 3 day",10.6 g
same,A/G,"72 h, time 3 day",2
same,ALP,"72 h, time 3 day",1631.2 IU/L
same,ALT,"72 h, time 3 day",37 IU/L
same,AST,"72 h, time 3 day",69.2 IU/L
same,BUN,"72 h, time 3 day",15 mg/dL
same,CRE,"72 h, time 3 day",0.4 mg/dL
same,Ca,"72 h, time 3 day",11.2 mg/dL
same,Cl,"72 h, time 3 day",104.8 meq/L
same,DBIL,"72 h, time 3 day",0.01 mg/dL
same,GLC,"72 h, time 3 day",199 mg/dL
same,IP,"72 h, time 3 day",7.1 mg/dL
same,K,"72 h, time 3 day",5.1 meq/L
same,LDH,"72 h, time 3 day",180.4 IU/L
same,Na,"72 h, time 3 day",136.8 meq/L
same,PL,"72 h, time 3 day",146.4 mg/dL
same,RALB,"72 h, time 3 day",3.7 g/dL
same,TBIL,"72 h, time 3 day",0.034 mg/dL
same,TC,"72 h, time 3 day",79.2 mg/dL
same,TG,"72 h, time 3 day",95.2 mg/dL
same,TP,"72 h, time 3 day",5.6 g/dL
same,gamma-GTP,"72 h, time 3 day",1 IU/L
same,TERMINAL_BW,"[…], time 7 day",262 g
same,TERMINAL_BW,"[…], time 14 day",330.1 g
same,TERMINAL_BW,"[…], time 28 day",414.7 g
same,APTT,"[…], time 7 day",16.7 s
same,Bas,"[…], time 7 day",0%
same,Eos,"[…], time 7 day",1%
same,Fbg,"[…], time 7 day",265.2 mg/dL
same,Hb,"[…], time 7 day",13.9 g/dL
same,Ht,"[…], time 7 day",42.7%
same,Lym,"[…], time 7 day",70%
same,MCH,"[…], time 7 day",21.2 pg
same,MCHC,"[…], time 7 day",32.5%
same,MCV,"[…], time 7 day",65.2 fL
same,Mono,"[…], time 7 day",9.4%
same,Neu,"[…], time 7 day",19.8%
same,PT,"[…], time 7 day",12.1 s
same,Plat,"[…], time 7 day",106 x10_4/uL
same,RBC,"[…], time 7 day",655.8 x10_4/ul
same,Ret,"[…], time 7 day",6.9%
same,WBC,"[…], time 7 day",101 x10_2/uL
same,APTT,"[…], time 14 day",16.6 s
same,Bas,"[…], time 14 day",0%
same,Eos,"[…], time 14 day",1%
same,Fbg,"[…], time 14 day",253.8 mg/dL
same,Hb,"[…], time 14 day",14 g/dL
same,Ht,"[…], time 14 day",42.8%
same,Lym,"[…], time 14 day",75%
same,MCH,"[…], time 14 day",20.2 pg
same,MCHC,"[…], time 14 day",32.8%
same,MCV,"[…], time 14 day",61.5 fL
same,Mono,"[…], time 14 day",8.6%
same,Neu,"[…], time 14 day",15.2%
same,PT,"[…], time 14 day",12.1 s
same,Plat,"[…], time 14 day",134.8 x10_4/uL
same,RBC,"[…], time 14 day",696.6 x10_4/ul
same,Ret,"[…], time 14 day",5.6%
same,WBC,"[…], time 14 day",119.2 x10_2/uL
same,APTT,"[…], time 28 day",17.5 s
same,Bas,"[…], time 28 day",0%
same,Eos,"[…], time 28 day",1.2%
same,Fbg,"[…], time 28 day",251.8 mg/dL
same,Hb,"[…], time 28 day",15.1 g/dL
same,Ht,"[…], time 28 day",46%
same,Lym,"[…], time 28 day",76.2%
same,MCH,"[…], time 28 day",19.4 pg
same,MCHC,"[…], time 28 day",32.8%
same,MCV,"[…], time 28 day",59.4 fL
same,Mono,"[…], time 28 day",7.2%
same,Neu,"[…], time 28 day",15.8%
same,PT,"[…], time 28 day",12 s
same,Plat,"[…], time 28 day",117.6 x10_4/uL
same,RBC,"[…], time 28 day",774.6 x10_4/ul
same,Ret,"[…], time 28 day",4.2%
same,WBC,"[…], time 28 day",132 x10_2/uL
same,KIDNEY_L,"[…], time 7 day",1.2 g
same,KIDNEY_R,"[…], time 7 day",1.2 g
same,KIDNEY_TOTAL,"[…], time 7 day",2.4 g
same,KIDNEY_L,"[…], time 14 day",1.4 g
same,KIDNEY_R,"[…], time 14 day",1.4 g
same,KIDNEY_TOTAL,"[…], time 14 day",2.7 g
same,KIDNEY_L,"[…], time 28 day",1.5 g
same,KIDNEY_R,"[…], time 28 day",1.5 g
same,KIDNEY_TOTAL,"[…], time 28 day",3 g
same,LIVER,"[…], time 7 day",11.7 g
same,LIVER,"[…], time 14 day",14 g
same,LIVER,"[…], time 28 day",16.3 g
same,A/G,"[…], time 7 day",1.9
same,ALP,"[…], time 7 day",1102.8 IU/L
same,ALT,"[…], time 7 day",32.8 IU/L
same,AST,"[…], time 7 day",69.6 IU/L
same,BUN,"[…], time 7 day",17.8 mg/dL
same,CRE,"[…], time 7 day",0.4 mg/dL
same,Ca,"[…], time 7 day",13.6 mg/dL
same,Cl,"[…], time 7 day",99.4 meq/L
same,DBIL,"[…], time 7 day",0.012 mg/dL
same,GLC,"[…], time 7 day",198.6 mg/dL
same,IP,"[…], time 7 day",8.2 mg/dL
same,K,"[…], time 7 day",4.8 meq/L
same,LDH,"[…], time 7 day",155.6 IU/L
same,Na,"[…], time 7 day",130.6 meq/L
same,PL,"[…], time 7 day",132.2 mg/dL
same,RALB,"[…], time 7 day",3.7 g/dL
same,TBIL,"[…], time 7 day",0.044 mg/dL
same,TC,"[…], time 7 day",68.6 mg/dL
same,TG,"[…], time 7 day",99.4 mg/dL
same,TP,"[…], time 7 day",5.7 g/dL
same,gamma-GTP,"[…], time 7 day",1 IU/L
same,A/G,"[…], time 14 day",1.8
same,ALP,"[…], time 14 day",1109.8 IU/L
same,ALT,"[…], time 14 day",33.8 IU/L
same,AST,"[…], time 14 day",70 IU/L
same,BUN,"[…], time 14 day",16.6 mg/dL
same,CRE,"[…], time 14 day",0.4 mg/dL
same,Ca,"[…], time 14 day",10.8 mg/dL
same,Cl,"[…], time 14 day",106.2 meq/L
same,DBIL,"[…], time 14 day",0.01 mg/dL
same,GLC,"[…], time 14 day",183.8 mg/dL
same,IP,"[…], time 14 day",6.9 mg/dL
same,K,"[…], time 14 day",5.3 meq/L
same,LDH,"[…], time 14 day",146.8 IU/L
same,Na,"[…], time 14 day",138.4 meq/L
same,PL,"[…], time 14 day",135.6 mg/dL
same,RALB,"[…], time 14 day",3.6 g/dL
same,TBIL,"[…], time 14 day",0.028 mg/dL
same,TC,"[…], time 14 day",66.6 mg/dL
same,TG,"[…], time 14 day",111.2 mg/dL
same,TP,"[…], time 14 day",5.7 g/dL
same,gamma-GTP,"[…], time 14 day",1 IU/L
same,A/G,"[…], time 28 day",1.5
same,ALP,"[…], time 28 day",926.6 IU/L
same,ALT,"[…], time 28 day",27.8 IU/L
same,AST,"[…], time 28 day",62.6 IU/L
same,BUN,"[…], time 28 day",16.6 mg/dL
same,CRE,"[…], time 28 day",0.4 mg/dL
same,Ca,"[…], time 28 day",9.3 mg/dL
same,Cl,"[…], time 28 day",105 meq/L
same,DBIL,"[…], time 28 day",0.012 mg/dL
same,GLC,"[…], time 28 day",193 mg/dL
same,IP,"[…], time 28 day",6.4 mg/dL
same,K,"[…], time 28 day",4.9 meq/L
same,LDH,"[…], time 28 day",168 IU/L
same,Na,"[…], time 28 day",139.4 meq/L
same,PL,"[…], time 28 day",142 mg/dL
same,RALB,"[…], time 28 day",3.8 g/dL
same,TBIL,"[…], time 28 day",0.046 mg/dL
same,TC,"[…], time 28 day",71.8 mg/dL
same,TG,"[…], time 28 day",158.2 mg/dL
same,TP,"[…], time 28 day",6.3 g/dL
same,gamma-GTP,"[…], time 28 day",0.6 IU/L

# — ChEMBL document CHEMBL3885861, “Open TG-GATES”
